This note sets out measurements from patent US5739131A, “Benzene derivatives and pharmaceutical composition” (Kureha Chemical Industry Co., Ltd., priority 1994, dated 1998).

Data set [1] has as its system kidney disease model rats. Put plainly: Renal function indicatory value (action to kidney diseases). It counts as in vivo, Sprague-Dawley female rats. Conditions: 20 mg/kg/day per os, two weeks; for Creatinine clearance: 24 hours urine, control 0.20; for Creatinine / Urea nitrogen: serum; for Creatinine: control 2.0; for Urea nitrogen: control 100. As to the method: The kidney disease model rats were prepared as in Example 115. Twenty-five groups (8 rats per group) were sleeked in a manner so that there were no major differences between each group in the serum creatinine value and the urea nitrogen value indicating renal function. The rats in each group were allowed to freely take up feed and water. […] To the rats in the control group, only water was forcedly administered per os every day. After two weeks, 0.2 ml of blood was collected from the carotid artery of the rat under anesthesia, and centrifuged to obtain serum. Using 25 μl of the serum, serum creatinine (Scr) was measured by a creatinine analytical instrument (Beckman). Using 10 μl of the serum, urea nitrogen (BUN) was measured by a BUN analytical instrument (Beckman). Creatinine clearance was evaluated as follows:
After serum creatinine measurement, rats were placed in urinary metabolic cages for 24 hours to collect urine. Urinary creatine concentration (Ucr) was measured by a creatinine analytical instrument, and total volume of urination (Uvol) was also measured. Creatinine clearance (CCr) was calculated by the following formula: [formula]

Data set [2] concerns kidney disease model rats. Put plainly: Action to depress blood pressure (tail cuff method). It counts as in vivo, Sprague-Dawley female rats. Particulars: systolic, average, 20 mg/kg per os, two days from administration; control (water) 203. The procedure: The compounds of the present invention and the reference substance were forcedly administered per os to kidney disease model rats, and the action to depress blood pressure was observed. The kidney disease model rats were prepared by ligature of branches of renal artery in accordance with the conventional method, that is, the left hilum renalis of Sprague-Dawley female rats was exposed under anesthesia, and one of four secondary branches of renal artery was left unligated, while the remaining three branches were ligated, respectively. After a week, the hilum renalis (artery, vein, and ureter) of the right kidney were further ligated to thereby prepare the rats whose renal function was lowered to approximately 1/8 of the normal function. Each group consisted of eight rats. The drugs to be tested (20 mg/kg) were administered to each administering group, and only water was administered to control group. After two days from the administration, the systolic blood pressure was measured by the tail cuff method using a blood pressure measuring apparatus (UR5000; Ueda).

Data set [3] concerns the target T1, angiotensin II receptor subtype 2 (AT2) (Bos taurus, UniProt G5E6F7).
T1 construct: receptor: from cerebellar cortex in bovine; from tissue; host or cells: bovine cerebellar cortex
T1 sequence (G5E6F7 1-362): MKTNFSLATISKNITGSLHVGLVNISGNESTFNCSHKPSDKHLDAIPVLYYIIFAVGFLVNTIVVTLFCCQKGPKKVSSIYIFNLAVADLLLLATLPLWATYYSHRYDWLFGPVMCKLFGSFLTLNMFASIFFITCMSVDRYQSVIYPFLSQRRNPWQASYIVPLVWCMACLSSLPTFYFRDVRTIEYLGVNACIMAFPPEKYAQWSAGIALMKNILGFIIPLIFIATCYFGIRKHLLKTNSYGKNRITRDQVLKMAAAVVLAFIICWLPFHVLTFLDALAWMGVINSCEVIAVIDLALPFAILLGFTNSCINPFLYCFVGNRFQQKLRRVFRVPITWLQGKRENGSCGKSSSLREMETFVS
Description: Binding assay, angiotensin II receptor subtype 2 (AT2). On the set-up: species or system bovine (cerebellar cortex). Particulars: 100 μM, AT2, bovine cerebellar cortex, 37° C. 1 hour; read-out: Binding inhibition % in 100 μm, AT2. The procedure: (§1) In this Example, the affinity to the angiotensin II receptor subtype 1 or subtype 2 was evaluated by a binding assay in accordance with the method described in Biochem. Pharmacol., 33, 4057-4062 (1984).
(§2) Specifically, the measurement of the total binding in the presence of each drug was performed as follows:
(§3) A mixture (final volume=0.25 ml) of a drug in a given concentration (the drug was dissolved in DMSO, and diluted to a double volume with a buffer attached to a drug discovery system to prepare sample for the assay; 0.025 ml), a tracer (0.025 ml), and receptors (0.2 ml) was incubated [in the case of the angiotensin II receptor subtype 1 (AT1), at room temperature for 3 hours, and in the case of the subtype 2 (AT2), at 37° C. for 1 hour]. Then, the reaction mixture was filtered with suction (GF/C filter was used in AT1, and GF/B filter was used in AT2). The filter papers after filtration with suction (the tracer bound to the receptors) were counted by a γ-well counter (ARC-500, Aloka). The non-specific bindings were measured by repeating the above method, except that a large excess amount of a displacer was added. The specific binding of the drug in the given concentration was calculated by subtracting the non-specific binding from the total binding, respectively.
(§4) In AT1 and AT2, the percentages to inhibit the bindings of radioactive ligands (tracer) to receptors by the drugs to be tested (IC50 value of concentration to show 50% inhibition, or binding inhibition % in 100 μM) were measured, using the drugs to be tested and control drugs in the given concentration.
receptor: from cerebellar cortex in bovine
tracer: ^125 ITyr^4angiotensin II
control drug: angiotensin II (human)
(displacer): angiotensin II (human)

The target in data set [4] is T2, angiotensin II receptor subtype 1 (AT1) (Oryctolagus cuniculus, UniProt P34976).
T2 construct: receptor: from adrenal glands in rabbits; from tissue; host or cells: rabbit adrenal glands
T2 sequence (P34976 1-359): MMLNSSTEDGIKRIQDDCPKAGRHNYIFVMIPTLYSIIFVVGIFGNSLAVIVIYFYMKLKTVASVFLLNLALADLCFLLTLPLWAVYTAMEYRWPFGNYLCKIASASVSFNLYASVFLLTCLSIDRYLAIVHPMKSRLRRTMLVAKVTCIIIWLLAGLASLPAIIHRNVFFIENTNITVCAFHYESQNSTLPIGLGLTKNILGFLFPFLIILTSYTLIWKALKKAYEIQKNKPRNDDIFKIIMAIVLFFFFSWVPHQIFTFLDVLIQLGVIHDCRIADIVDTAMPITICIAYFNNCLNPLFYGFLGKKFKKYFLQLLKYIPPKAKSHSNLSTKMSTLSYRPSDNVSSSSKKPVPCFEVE
Put plainly: Binding assay, angiotensin II receptor subtype 1 (AT1). Conditions: for IC50: tracer 3H angiotensin II, room temperature 3 hours, read-out: IC50 AT1; for inhibition at 100 µM: AT1, rabbit adrenal glands. On the set-up: species or system rabbit (adrenal glands). As to the method:
as §1, §2, §3, §4

Data set [5] relates to kidney disease model rats. Put plainly: Action to survival time of kidney diseased animals. It counts as in vivo, Sprague-Dawley female rats. Particulars: 20 mg/kg/day per os, observation eight weeks (upper limit); control 5.0. The procedure: The kidney disease model rats were prepared as in Example 115. Twenty-five groups (8 rats per group) were prepared in a manner so that there was no major difference between the groups in the serum creatinine value and the urea nitrogen value indicating renal function. The rats in each group were allowed to freely take up feed and water. […] To the rats in the control group, only water was forcedly administered per os every day. If kidney diseases are aggravated, the rat will die of uremia. Thus, the survival time was observed as comprehensive indication of the improvement effect on the kidney diseases. The observation period was eight weeks. Thus if all rats survived, the average survival time is eight weeks and it is an upper limit.

A further data set relates to mice. Description: Acute toxicity, single oral dose. The class given is in vivo. The procedure:
Five-week-old ICR female mice (5 mice per group) were bred for acclimation for a week. Then, the compounds of the present invention were dissolved or dispersed in an aqueous solution of 0.5% methylcellulose, and orally administered to the mice in a single dosage (500 mg/kg).

A word on the inhibition: it is the change of the read-out against control, counted positive when it falls. Usually IC50 stands for the midpoint of a concentration-inhibition curve. Take `CCCCC(=O)N(Cc1ccc(-c2ccccc2-c2nn[nH]n2)cc1)c1cc(C(=O)N2CCOCC2)ccc1NC(C)=O` [Compound No. 592, 4-acetamido-3-N-[[[2'-(1H-tetrazol-5-yl)biphenyl-4-yl]methyl]valeramido]benzoic acid morpholide]: in data set [1], the Creatinine clearance worked out at 0.33 mL/min, the Creatinine is 1.7 mg/dL and the Urea nitrogen is 76 mg/dL. This molecule gave a Blood pressure in data set [2] of 202 mmHg. In data set [3], the inhibition at 100 µM was found to be 0%. For the same molecule, the IC50 in data set [4] stood at 4.9 µM. The same molecule had an Average survival time in data set [5] of 7.0 weeks. For the same molecule, the “Number of deaths/number of survivals” value in the data set on mice (mouse, in vivo, po, 500 mg/kg) is reported as 0/5.
Turning to `CCCCCN(C)c1c(NCc2ccc(-c3ccccc3-c3nn[nH]n3)cc2)cc(C(=O)N2CCOCC2)cc1NC(=O)C(c1ccccc1)c1ccccc1` [Compound No. 593, 4-(N-n-amyl-N-methyl)amino-5-(diphenylacetamido)-3-[[2'-(1H-tetrazol-5-yl)biphenyl-4-yl]methylamino]benzoic acid morpholide], in data set [1], the Creatinine clearance is 0.31 mL/min, the Creatinine worked out at 1.6 mg/dL and the Urea nitrogen was 80 mg/dL. This molecule yielded a Blood pressure in data set [2] of 200 mmHg. For the same molecule, the inhibition at 100 µM in data set [3] came out at 0%. In data set [4], this molecule registered an inhibition at 100 µM of 36%. Moreover, the Average survival time in data set [5] is given as 7.1 weeks. Also, the “Number of deaths/number of survivals” value with mice (mouse, in vivo, po, 500 mg/kg) is 0/5.
For the molecule `CCCCC(=O)Nc1ccc(C(=O)N2CCOCC2)cc1N(Cc1ccc(-c2ccccc2-c2nn[nH]n2)cc1)Cc1ccc(-c2ccccc2-c2nn[nH]n2)cc1` [Compound No. 594, 3-[di-[2'-(1H-tetrazol-5-yl)biphenyl-4-yl]methylamino]-4-valeramidobenzoicacid morpholide], in data set [1], the Creatinine clearance came to 0.30 mL/min, the Creatinine was found to be 1.7 mg/dL and the Urea nitrogen is 77 mg/dL. In data set [2], this molecule registered a Blood pressure of 194 mmHg. The inhibition at 100 µM in data set [3] amounted to 0%. Also, the IC50 in data set [4] was determined as 32 µM. Also, the Average survival time in data set [5] is 6.5 weeks. Further, the “Number of deaths/number of survivals” value with mice (mice, single oral 500 mg/kg, observed for 6 days, 5 per group) is recorded as 0/5.
On to `CCCCCN(C)c1ccc(S(=O)(=O)N2CCOCC2)cc1NCc1ccc(-c2ccccc2-c2nn[nH]n2)cc1` [Compound No. 595, 4-[[4-(N-n-amyl-N-methyl)amino-3-[[2'-(1H-tetrazol-5-yl)biphenyl-4-yl]methyl]aminobenzene]sulfonyl]morpholine], for which, in data set [1], the Creatinine clearance came out at 0.38 mL/min, the Creatinine was 1.5 mg/dL and the Urea nitrogen came out at 73 mg/dL. In addition, the Blood pressure in data set [2] is listed as 198 mmHg. Further, the inhibition at 100 µM in data set [3] came out at 0%. This molecule had an inhibition at 100 µM in data set [4] of 41%. Moreover, in data set [5], the Average survival time came to 7.6 weeks. In the data set on mice (mouse, in vivo, po, 500 mg/kg), the “Number of deaths/number of survivals” value is on record as 0/5.
In data set [1], `CCCCCN(C)c1ccc(S(=O)(=O)N2CCOCC2)cc1NCc1ccc(C(=O)O)cc1` [Compound No. 596, 4-[[4-(N-n-amyl-N-methyl)amino-3-[(4-carboxyphenyl)methyl]aminobenzene]sulfonyl]morpholine] displayed a Creatinine clearance of 0.34 mL/min, a Creatinine of 1.6 mg/dL and a Urea nitrogen of 78 mg/dL. In data set [2], this molecule came in with a Blood pressure of 198 mmHg. Further, the inhibition at 100 µM in data set [3] worked out at 0%. In data set [4], the inhibition at 100 µM is 22%. In data set [5], this molecule showed an Average survival time of 6.0 weeks. In addition, in the data set with mice (mouse, in vivo, po, 500 mg/kg), the “Number of deaths/number of survivals” value is 0/5.
`CCCCCN(C)c1c(NCc2ccc(C(=O)O)cc2)cc(S(=O)(=O)N2CCOCC2)cc1NC(=O)C(c1ccccc1)c1ccccc1` [Compound No. 598, 4-[[4-(N-n-amyl-N-methyl)amino-3-[(4-carboxylphenyl)methyl]amino-5-(diphenylacetamido)benzene]sulfonyl]morpholine]: in data set [1], the Creatinine clearance is 0.35 mL/min, the Creatinine was determined as 1.6 mg/dL and the Urea nitrogen came to 80 mg/dL. Further, the Blood pressure in data set [2] stood at 202 mmHg. The inhibition at 100 µM in data set [3] turned out to be 0%. This molecule also gave an inhibition at 100 µM in data set [4] of 36%. The Average survival time in data set [5] worked out at 7.2 weeks. Moreover, the “Number of deaths/number of survivals” value with mice (mouse, in vivo, po, 500 mg/kg) is listed as 0/5.
Turning to `CCCCCN(C)c1c(NCc2ccc(-c3ccccc3-c3nn[nH]n3)cc2)cc(S(=O)(=O)N2CCOCC2)cc1NC(=O)CCc1ccccc1` [Compound No. 599, 4-[[4-(N-n-amyl-N-methyl)amino-3-[[2'-(1H-tetrazol-5-yl)biphenyl-4-yl]methyl]amino-5-(3-phenylpropionamido)benzene]sulfonyl]morpholine], in data set [1], the Creatinine clearance was found to be 0.35 mL/min, the Creatinine was 1.5 mg/dL and the Urea nitrogen was determined as 73 mg/dL. In addition, the Blood pressure in data set [2] was 200 mmHg. Also, in data set [3], the inhibition at 100 µM is 0%. Further, at 100 µM the inhibition in data set [4] was 38%. The molecule also showed an Average survival time in data set [5] of 7.0 weeks. Besides, the “Number of deaths/number of survivals” value in the data set on mice (mouse, in vivo, po, 500 mg/kg) is recorded as 0/5.
